Experimental findings from article PMC11964917 (Nature Microbiology, 2025) are described below.

SMILES strings stand for the structures. Some results are limits rather than exact numbers.

The EC50 is the concentration giving half of the maximal effect. The IC50 is the midpoint of a concentration-inhibition curve.

One assay deals with influenza A/H5N1 virus. The format is cell-based.
The subject of another assay is influenza A/H7N9 virus. The format is cell-based.
In another assay the test system is recombinant NA A/H7N9. The format is biochemical, influenza A virus.

With `O=C1c2c(O)c(=O)ccn2N([C@@H]2c3ccccc3SCc3c2ccc(F)c3F)[C@@H]2COCCN12` [BXA, baloxavir acid], the EC50 in the assay on influenza A/H5N1 virus and with influenza A/H7N9 virus was less than 0.03 nM in each case. For the compound `CC(=O)N[C@H]1[C@H]([C@H](O)[C@H](O)CO)OC(C(=O)O)=C[C@@H]1N=C(N)N` [ZAN, zanamivir], the IC50 in the assay on recombinant NA A/H7N9 is more than 100 nM.
